Reference: patent US11725036B2, “Modified lipidated relaxin B chain peptides and their therapeutic use” (Sanofi, priority 2018, dated 2023)
Starred links: 1 amine or outer side, 2 acyl side, 3 side chain; linkers in the order of their positions; H or OH if unused. Non-standard residues stand in square brackets, D forms with d. Residues, ends and D or L forms follow the SMILES beside them. Groups on a side chain read outwards from the residue. *: point of attachment. X11 = CCCCCCCCCCCCCCCCCC(=O)N[C@@H](CCC(=O)N[C@@H](CCC(=O)N[C@@H](CCC(=O)N[C@@H](CCC(=O)NCCCOCCOCCOCCCNC(=O)CCC(=O)NCCCOCCOCCOCCCNC(=O)CCC(=O)NCCCOCCOCCOCCCN*)C(=O)O)C(=O)O)C(=O)O)C(=O)O; X3 = CCCCCCCCCCCCCCCCCC(=O)N[C@@H](CCC(=O)N[C@@H](CCC(=O)N[C@@H](CCC(=O)NCCCOCCOCCOCCCNC(=O)CCC(=O)NCCCOCCOCCOCCCNC(=O)CCC(=O)NCCCOCCOCCOCCCN*)C(=O)O)C(=O)O)C(=O)O; X1 = CCCCCCCCCCCCCCCC(=O)N[C@@H](CCC(=O)N[C@@H](CCC(=O)N[C@@H](CCC(=O)NCCCOCCOCCOCCCNC(=O)CCC(=O)NCCCOCCOCCOCCCNC(=O)CCC(=O)NCCCOCCOCCOCCCN*)C(=O)O)C(=O)O)C(=O)O; X14 = CCCCCCCCCCCCCCCCCC(=O)N[C@@H](CCC(=O)N[C@@H](CCC(=O)N[C@@H](CCC(=O)N[C@@H](CCC(=O)NCCCOCCOCCOCCCNC(=O)CCC(=O)NCCCOCCOCCOCCCN*)C(=O)O)C(=O)O)C(=O)O)C(=O)O; γGlu = O=C(O)[C@H](CCC(=O)[*:2])N[*:1]; Palmitoyl = CCCCCCCCCCCCCCCC(=O)*; Cit = NC(=O)NCCC[C@H](N)C(=O)O; Suc = O=C(CCC(=O)[*:2])[*:1]; αMeK = C[C@](N)(CCCCN)C(=O)O; AEEA = NCCOCCOCC(=O)O; Aib = CC(C)(N)C(=O)O

Biological target: T1, RXFP1 (Homo sapiens, UniProt Q9HBX9)
T1 construct: OVCAR5 cells expressing endogenous RXFP1; endogenous in cells; host or cells: OVCAR5
T1 sequence (Q9HBX9 1-757): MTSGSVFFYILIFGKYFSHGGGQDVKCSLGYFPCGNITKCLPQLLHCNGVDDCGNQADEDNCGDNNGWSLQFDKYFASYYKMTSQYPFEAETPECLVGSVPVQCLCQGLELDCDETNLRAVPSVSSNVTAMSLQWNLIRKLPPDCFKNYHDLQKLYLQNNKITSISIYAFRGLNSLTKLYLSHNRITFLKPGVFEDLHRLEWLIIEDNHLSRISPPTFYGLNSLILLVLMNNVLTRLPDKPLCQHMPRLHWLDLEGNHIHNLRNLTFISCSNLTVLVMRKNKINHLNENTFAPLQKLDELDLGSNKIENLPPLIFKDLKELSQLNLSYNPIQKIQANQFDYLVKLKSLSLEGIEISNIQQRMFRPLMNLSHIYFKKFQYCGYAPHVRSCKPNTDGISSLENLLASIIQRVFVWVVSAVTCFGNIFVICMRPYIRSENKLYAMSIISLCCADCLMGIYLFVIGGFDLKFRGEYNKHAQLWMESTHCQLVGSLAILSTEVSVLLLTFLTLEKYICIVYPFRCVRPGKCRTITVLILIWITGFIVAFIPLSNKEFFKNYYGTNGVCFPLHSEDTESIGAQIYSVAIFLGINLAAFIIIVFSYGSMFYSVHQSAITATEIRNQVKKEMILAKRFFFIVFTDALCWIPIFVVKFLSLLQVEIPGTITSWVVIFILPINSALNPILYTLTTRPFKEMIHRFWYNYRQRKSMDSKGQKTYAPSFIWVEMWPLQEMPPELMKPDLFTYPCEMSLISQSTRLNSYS
Test: OVCAR5 cAMP assay (HTRF)
Format: cell-based
Details: for EC50: OVCAR 5 cells expressing endogenous RXFP1, cAMP readout; for Emax: OVCAR 5 cells, maximal cAMP relative to H2-relaxin
Method in brief: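 Peptide agonism measured as intracellular cAMP (HTRF) after 30 min at 37° C in serum-free medium, following 40 min 1 mM IBMX preincubation of OVCAR5 cells. Nonlinear regression gave EC50; Emax % = 100 × compound maximal cAMP / H2-relaxin maximal cAMP.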

Row | Compound | EC50 [nM] | Emax [%]
1 | CCCCCCCCCCCCCCCC(=O)N[C@@H](CCC(=O)N[C@@H](CCC(=O)N[C@@H](CCC(=O)NCCOCCOCC(=O)NCCOCCOCC(=O)NCCOCCOCC(=O)NCCOCCOCC(=O)NCCOCCOCC(=O)NCCCC[C@H](NC(=O)CNC(=O)[C@H](CCC(=O)O)NC(=O)C(C)(C)NC(=O)C(C)(C)NC(=O)[C@@H](NC(=O)[C@H](CCCCNC(C)=O)NC(=O)[C@H](C)NC(=O)[C@H](CCCNC(=N)N)NC(=O)[C@@H](NC(=O)[C@H](CCCCN)NC(=O)[C@H](CCC(=O)O)NC(=O)[C@H](CCCNC(=N)N)NC(=O)CNC(=O)[C@H](CCC(=O)O)NC(=O)[C@H](CC(C)C)NC(C)=O)C(C)C)[C@@H](C)CC)C(=O)N[C@@H](CO)C(=O)N[C@H](C(=O)N[C@@H](Cc1ccccc1)C(=O)N[C@@H](CO)C(=O)N[C@@](C)(CCCCN)C(=O)N[C@@H](CCCNC(=N)N)C(=O)N[C@@H](C)C(=O)N[C@@H](CCCCNC(C)=O)C(N)=O)[C@@H](C)O)C(=O)O)C(=O)O)C(=O)O [compound 45] (Ac-LEGREKVRAK(Ac)I[Aib][Aib]EGK([AEEA-AEEA-AEEA-AEEA-AEEA-γGlu-γGlu-γGlu-Palmitoyl])STFS[αMeK]RAK(Ac)-NH2) | 0.45 | 96
2 | CCCCCCCCCCCCCCCCCC(=O)N[C@@H](CCC(=O)N[C@@H](CCC(=O)N[C@@H](CCC(=O)N[C@@H](CCC(=O)NCCCOCCOCCOCCCNC(=O)CCC(=O)NCCCOCCOCCOCCCNC(=O)CCC(=O)NCCCOCCOCCOCCCNC(=O)CCC(=O)NCCCC[C@H](NC(=O)CNC(=O)[C@H](CCC(=O)O)NC(=O)C(C)(C)NC(=O)C(C)(C)NC(=O)[C@@H](NC(=O)[C@H](CCCCNC(C)=O)NC(=O)[C@H](C)NC(=O)[C@H](CCCNC(=N)N)NC(=O)[C@@H](NC(=O)[C@H](CCCCN)NC(=O)[C@H](CCC(=O)O)NC(=O)[C@H](CCCNC(=N)N)NC(=O)CNC(=O)[C@H](CCC(=O)O)NC(=O)[C@H](CC(C)C)NC(C)=O)C(C)C)[C@@H](C)CC)C(=O)N[C@@H](CO)C(=O)N[C@H](C(=O)N[C@@H](Cc1c[nH]c2ccccc12)C(=O)N[C@@H](CO)C(=O)NC(C)(C)C(=O)N[C@@H](CCCNC(=N)N)C(=O)N[C@@H](CCCCN)C(=O)N[C@@H](CCCCNC(C)=O)C(N)=O)[C@@H](C)O)C(=O)O)C(=O)O)C(=O)O)C(=O)O [compound 51] (Ac-LEGREKVRAK(Ac)I[Aib][Aib]EGK([Suc-X11])STWS[Aib]RKK(Ac)-NH2) | 0.1 | 98
3 | CCCCCCCCCCCCCCCCCC(=O)N[C@@H](CCC(=O)N[C@@H](CCC(=O)N[C@@H](CCC(=O)NCCCOCCOCCOCCCNC(=O)CCC(=O)NCCCOCCOCCOCCCNC(=O)CCC(=O)NCCCOCCOCCOCCCNC(=O)CCC(=O)NCCCC[C@H](NC(=O)CNC(=O)[C@H](CCC(=O)O)NC(=O)C(C)(C)NC(=O)C(C)(C)NC(=O)[C@@H](NC(=O)[C@H](CCCNC(N)=O)NC(=O)[C@H](C)NC(=O)[C@H](CCCNC(=N)N)NC(=O)[C@@H](NC(=O)[C@H](CCCCN)NC(=O)[C@H](CCC(=O)O)NC(=O)[C@H](CCCNC(=N)N)NC(=O)CNC(=O)[C@H](CCC(=O)O)NC(=O)[C@H](CC(C)C)NC(C)=O)C(C)C)[C@@H](C)CC)C(=O)N[C@@H](CO)C(=O)N[C@H](C(=O)N[C@@H](Cc1ccccc1)C(=O)N[C@@H](CO)C(=O)N[C@@](C)(CCCCN)C(=O)N[C@@H](CCCNC(=N)N)C(=O)N[C@@H](C)C(=O)N[C@@H](CCCCNC(C)=O)C(N)=O)[C@@H](C)O)C(=O)O)C(=O)O)C(=O)O [compound 56] (Ac-LEGREKVRA[Cit]I[Aib][Aib]EGK([Suc-X3])STFS[αMeK]RAK(Ac)-NH2) | 0.15 | 91

Continued by falling EC50, values first:

Row | EC50 [nM] | Emax [%] | Compound
4 | 0.64 | 95 | CCCCCCCCCCCCCCCC(=O)N[C@@H](CCC(=O)N[C@@H](CCC(=O)N[C@@H](CCC(=O)NCCCOCCOCCOCCCNC(=O)CCC(=O)NCCCOCCOCCOCCCNC(=O)CCC(=O)NCCCOCCOCCOCCCNC(=O)CCC(=O)NCCCC[C@H](NC(=O)CNC(=O)[C@H](CCC(=O)O)NC(=O)C(C)(C)NC(=O)C(C)(C)NC(=O)[C@@H](NC(=O)[C@H](CCCCN)NC(=O)[C@H](C)NC(=O)[C@H](CCCNC(=N)N)NC(=O)[C@@H](NC(=O)[C@H](CCCCN)NC(=O)[C@H](CCC(=O)O)NC(=O)[C@H](CCCNC(=N)N)NC(=O)CNC(=O)[C@H](CCC(=O)O)NC(=O)[C@H](CC(C)C)NC(C)=O)C(C)C)[C@@H](C)CC)C(=O)N[C@@H](CO)C(=O)N[C@H](C(=O)N[C@@H](Cc1ccccc1)C(=O)N[C@@H](CO)C(=O)N[C@@](C)(CCCCN)C(=O)N[C@@H](CCCNC(=N)N)C(=O)N[C@@H](C)C(=O)N[C@@H](CCCCNC(C)=O)C(N)=O)[C@@H](C)O)C(=O)O)C(=O)O)C(=O)O [compound 47] (Ac-LEGREKVRAKI[Aib][Aib]EGK([Suc-X1])STFS[αMeK]RAK(Ac)-NH2)
5 | 0.45 | 96 | CCCCCCCCCCCCCCCC(=O)N[C@@H](CCC(=O)N[C@@H](CCC(=O)N[C@@H](CCC(=O)NCCCOCCOCCOCCCNC(=O)CCC(=O)NCCCOCCOCCOCCCNC(=O)CCC(=O)NCCCOCCOCCOCCCNC(=O)CCC(=O)NCCCC[C@H](NC(=O)CNC(=O)[C@H](CCC(=O)O)NC(=O)C(C)(C)NC(=O)C(C)(C)NC(=O)[C@@H](NC(=O)[C@H](CCC(N)=O)NC(=O)[C@H](C)NC(=O)[C@H](CCCNC(=N)N)NC(=O)[C@@H](NC(=O)[C@H](CCCCN)NC(=O)[C@H](CCC(=O)O)NC(=O)[C@H](CCCNC(=N)N)NC(=O)CNC(=O)[C@H](CCC(=O)O)NC(=O)[C@H](CC(C)C)NC(C)=O)C(C)C)[C@@H](C)CC)C(=O)N[C@@H](CO)C(=O)N[C@H](C(=O)N[C@@H](Cc1ccccc1)C(=O)N[C@@H](CO)C(=O)N[C@@](C)(CCCCN)C(=O)N[C@@H](CCCNC(=N)N)C(=O)N[C@@H](C)C(=O)N[C@@H](CCCCNC(C)=O)C(N)=O)[C@@H](C)O)C(=O)O)C(=O)O)C(=O)O [compound 48] (Ac-LEGREKVRAQI[Aib][Aib]EGK([Suc-X1])STFS[αMeK]RAK(Ac)-NH2)
6 | 0.19 | 97 | CCCCCCCCCCCCCCCC(=O)N[C@@H](CCC(=O)N[C@@H](CCC(=O)N[C@@H](CCC(=O)NCCCOCCOCCOCCCNC(=O)CCC(=O)NCCCOCCOCCOCCCNC(=O)CCC(=O)NCCCOCCOCCOCCCNC(=O)CCC(=O)NCCCC[C@H](NC(=O)CNC(=O)[C@H](CCC(=O)O)NC(=O)C(C)(C)NC(=O)C(C)(C)NC(=O)[C@@H](NC(=O)[C@H](CCCCNC(C)=O)NC(=O)[C@H](C)NC(=O)[C@H](CCCNC(=N)N)NC(=O)[C@@H](NC(=O)[C@H](CCCCN)NC(=O)[C@H](CCC(=O)O)NC(=O)[C@H](CCCNC(=N)N)NC(=O)CNC(=O)[C@H](CCC(=O)O)NC(=O)[C@H](CC(C)C)NC(C)=O)C(C)C)[C@@H](C)CC)C(=O)N[C@@H](CO)C(=O)N[C@H](C(=O)N[C@@H](Cc1ccccc1)C(=O)N[C@@H](CO)C(=O)N[C@@](C)(CCCCN)C(=O)N[C@@H](CCCNC(=N)N)C(=O)N[C@@H](C)C(=O)N[C@@H](CCCCN)C(N)=O)[C@@H](C)O)C(=O)O)C(=O)O)C(=O)O [compound 49] (Ac-LEGREKVRAK(Ac)I[Aib][Aib]EGK([Suc-X1])STFS[αMeK]RAK-NH2)
7 | 0.16 | 96 | CCCCCCCCCCCCCCCCCC(=O)N[C@@H](CCC(=O)N[C@@H](CCC(=O)N[C@@H](CCC(=O)N[C@@H](CCC(=O)NCCCOCCOCCOCCCNC(=O)CCC(=O)NCCCOCCOCCOCCCNC(=O)CCC(=O)NCCCC[C@H](NC(=O)CNC(=O)[C@H](CCC(=O)O)NC(=O)C(C)(C)NC(=O)C(C)(C)NC(=O)[C@@H](NC(=O)[C@H](CCCCNC(C)=O)NC(=O)[C@H](C)NC(=O)[C@H](CCCNC(=N)N)NC(=O)[C@@H](NC(=O)[C@H](CCCCN)NC(=O)[C@H](CCC(=O)O)NC(=O)[C@H](CCCNC(=N)N)NC(=O)CNC(=O)[C@H](CCC(=O)O)NC(=O)[C@H](CC(C)C)NC(C)=O)C(C)C)[C@@H](C)CC)C(=O)N[C@@H](CO)C(=O)N[C@H](C(=O)N[C@@H](Cc1c[nH]c2ccccc12)C(=O)N[C@@H](CO)C(=O)NC(C)(C)C(=O)N[C@@H](CCCNC(=N)N)C(=O)N[C@@H](CCCCN)C(=O)N[C@@H](CCCCNC(C)=O)C(N)=O)[C@@H](C)O)C(=O)O)C(=O)O)C(=O)O)C(=O)O [compound 54] (Ac-LEGREKVRAK(Ac)I[Aib][Aib]EGK([Suc-X14])STWS[Aib]RKK(Ac)-NH2)
